{"source": "ChEMBL document CHEMBL1127385", "about": "“Synthesis and diuretic activity of alkyl- and arylguanidine analogs of N,N'-dicyclohexyl-4-morpholinecarboxamidine in rats and dogs” (J Med Chem, 1994)", "key": {"Canis familiaris [1]": {"system": "Canis familiaris", "experiment": "Total electrolytic excretion of sodium in urine of dogs after intravenous administration of 2.49 uM/Kg of drug", "format": "ADME, organism-based, Canis lupus familiaris", "conditions": "dog, in vivo"}, "Rattus norvegicus [2]": {"system": "Rattus norvegicus", "experiment": "Total electrolytic excretion of potassium in urine of rats after peroral administration of 24.9 uM/Kg of drug", "format": "ADME, organism-based", "conditions": "in vivo, po"}, "Canis familiaris [3]": {"system": "Canis familiaris", "experiment": "Total electrolytic excretion of chlorine in urine of dogs after intravenous administration of 2.49 uM/Kg of drug", "format": "ADME, organism-based, Canis lupus familiaris", "conditions": "dog, in vivo"}, "Rattus norvegicus [4]": {"system": "Rattus norvegicus", "experiment": "Total electrolytic excretion of chlorine in urine of rats after peroral administration of 24.9 uM/Kg of drug", "format": "ADME, organism-based", "conditions": "in vivo, po"}, "Rattus norvegicus [5]": {"system": "Rattus norvegicus", "experiment": "Total electrolytic excretion of chlorine in urine of rats after peroral administration of 249 uM/Kg of drug", "format": "ADME, organism-based", "conditions": "in vivo, po"}, "Rattus norvegicus [6]": {"system": "Rattus norvegicus", "experiment": "Total electrolytic excretion of sodium in urine of rats after peroral administration of 74.8 uM/Kg of drug", "format": "ADME, organism-based", "conditions": "in vivo, po"}, "Rattus norvegicus [7]": {"system": "Rattus norvegicus", "experiment": "Ratio of Total electrolytic excretion of sodium and potassium in urine of rats after peroral administration of 249 uM/Kg of drug", "format": "ADME, organism-based", "conditions": "in vivo, po"}, "Rattus norvegicus [8]": {"system": "Rattus norvegicus", "experiment": "Total electrolytic excretion of chlorine in urine of rats after peroral administration of 74.8 uM/Kg of drug", "format": "ADME, organism-based", "conditions": "in vivo, po"}, "Rattus norvegicus [9]": {"system": "Rattus norvegicus", "experiment": "Total electrolytic excretion of sodium in urine of rats after peroral administration of 24.9 uM/Kg of drug", "format": "ADME, organism-based", "conditions": "in vivo, po"}, "Rattus norvegicus [10]": {"system": "Rattus norvegicus", "experiment": "Tested for the diuretic activity by measuring the urinary volume after peroral administering 249 uM/Kg of drug in rats", "format": "ADME, organism-based, Urine", "conditions": "in vivo, po"}, "Rattus norvegicus [11]": {"system": "Rattus norvegicus", "experiment": "Total electrolytic excretion of potassium in urine of rats after peroral administration of 74.8 uM/Kg of drug", "format": "ADME, organism-based", "conditions": "in vivo, po"}, "Rattus norvegicus [12]": {"system": "Rattus norvegicus", "experiment": "Total electrolytic excretion of potassium in urine of rats after peroral administration of 249 uM/Kg of drug", "format": "ADME, organism-based", "conditions": "in vivo, po"}, "Rattus norvegicus [13]": {"system": "Rattus norvegicus", "experiment": "Tested for the diuretic activity by measuring the urinary volume after peroral administering 74.8 uM/Kg of drug in rats", "format": "ADME, organism-based, Urine", "conditions": "in vivo, po"}, "Canis familiaris [14]": {"system": "Canis familiaris", "experiment": "Tested for the diuretic activity by measuring the urinary volume after intravenous administering 2.49 uM/Kg of drug in dogs", "format": "ADME, organism-based, Canis lupus familiaris, Urine", "conditions": "dog, in vivo"}, "Rattus norvegicus [15]": {"system": "Rattus norvegicus", "experiment": "Ratio of Total electrolytic excretion of sodium and potassium in urine of rats after peroral administration of 74.8 uM/Kg of drug", "format": "ADME, organism-based", "conditions": "in vivo, po"}, "Rattus norvegicus [16]": {"system": "Rattus norvegicus", "experiment": "Ratio of Total electrolytic excretion of sodium and potassium in urine of rats after intravenous administration of 2.49 uM/Kg of drug", "format": "ADME, organism-based", "conditions": "in vivo"}, "Canis familiaris [17]": {"system": "Canis familiaris", "experiment": "Total electrolytic excretion of potassium in urine of dogs after intravenous administration of 2.49 uM/Kg of drug", "format": "ADME, organism-based, Canis lupus familiaris", "conditions": "dog, in vivo"}, "Rattus norvegicus [18]": {"system": "Rattus norvegicus", "experiment": "Ratio of Total electrolytic excretion of sodium and potassium in urine of rats after peroral administration of 24.9 uM/Kg of drug", "format": "ADME, organism-based", "conditions": "in vivo, po"}, "Rattus norvegicus [19]": {"system": "Rattus norvegicus", "experiment": "Total electrolytic excretion of sodium in urine of rats after peroral administration of 249 uM/Kg of drug", "format": "ADME, organism-based", "conditions": "in vivo, po"}, "Rattus norvegicus [20]": {"system": "Rattus norvegicus", "experiment": "Tested for the diuretic activity by measuring the urinary volume after peroral administering 24.9 uM/Kg of drug in rats", "format": "ADME, organism-based, Urine", "conditions": "in vivo, po"}, "Rattus norvegicus [21]": {"system": "Rattus norvegicus", "experiment": "Ratio of Total electrolytic excretion of sodium and potassium in urine of rats after peroral administration of 270 uM/Kg of drug", "format": "ADME, organism-based", "conditions": "in vivo, po"}, "Rattus norvegicus [22]": {"system": "Rattus norvegicus", "experiment": "Ratio of Total electrolytic excretion of sodium and potassium in urine of rats after peroral administration of 80.9 uM/Kg of drug", "format": "ADME, organism-based", "conditions": "in vivo, po"}, "Rattus norvegicus [23]": {"system": "Rattus norvegicus", "experiment": "Total electrolytic excretion of potassium in urine of rats after peroral administration of 27 uM/Kg of drug", "format": "ADME, organism-based", "conditions": "in vivo, po"}, "Rattus norvegicus [24]": {"system": "Rattus norvegicus", "experiment": "Total electrolytic excretion of potassium in urine of rats after peroral administration of 270 uM/Kg of drug", "format": "ADME, organism-based", "conditions": "in vivo, po"}, "Rattus norvegicus [25]": {"system": "Rattus norvegicus", "experiment": "Tested for the diuretic activity by measuring the urinary volume after peroral administering 80.9 uM/Kg of drug in rats", "format": "ADME, organism-based, Urine", "conditions": "in vivo, po"}, "Rattus norvegicus [26]": {"system": "Rattus norvegicus", "experiment": "Total electrolytic excretion of chlorine in urine of rats after peroral administration of 27 uM/Kg of drug", "format": "ADME, organism-based", "conditions": "in vivo, po"}, "Rattus norvegicus [27]": {"system": "Rattus norvegicus", "experiment": "Total electrolytic excretion of chlorine in urine of rats after peroral administration of 270 uM/Kg of drug", "format": "ADME, organism-based", "conditions": "in vivo, po"}, "Rattus norvegicus [28]": {"system": "Rattus norvegicus", "experiment": "Total electrolytic excretion of sodium in urine of rats after peroral administration of 27 uM/Kg of drug", "format": "ADME, organism-based", "conditions": "in vivo, po"}, "Rattus norvegicus [29]": {"system": "Rattus norvegicus", "experiment": "Tested for the diuretic activity by measuring the urinary volume after peroral administering 270 uM/Kg of drug in rats", "format": "ADME, organism-based, Urine", "conditions": "in vivo, po"}, "Rattus norvegicus [30]": {"system": "Rattus norvegicus", "experiment": "Total electrolytic excretion of chlorine in urine of rats after peroral administration of 80.9 uM/Kg of drug", "format": "ADME, organism-based", "conditions": "in vivo, po"}, "Rattus norvegicus [31]": {"system": "Rattus norvegicus", "experiment": "Tested for the diuretic activity by measuring the urinary volume after peroral administering 27 uM/Kg of drug in rats", "format": "ADME, organism-based, Urine", "conditions": "in vivo, po"}, "Rattus norvegicus [32]": {"system": "Rattus norvegicus", "experiment": "Total electrolytic excretion of potassium in urine of rats after peroral administration of 80.9 uM/Kg of drug", "format": "ADME, organism-based", "conditions": "in vivo, po"}, "Rattus norvegicus [33]": {"system": "Rattus norvegicus", "experiment": "Ratio of Total electrolytic excretion of sodium and potassium in urine of rats after peroral administration of 27 uM/Kg of drug", "format": "ADME, organism-based", "conditions": "in vivo, po"}, "Rattus norvegicus [34]": {"system": "Rattus norvegicus", "experiment": "Total electrolytic excretion of sodium in urine of rats after peroral administration of 80.9 uM/Kg of drug", "format": "ADME, organism-based", "conditions": "in vivo, po"}, "Rattus norvegicus [35]": {"system": "Rattus norvegicus", "experiment": "Total electrolytic excretion of sodium in urine of rats after peroral administration of 270 uM/Kg of drug", "format": "ADME, organism-based", "conditions": "in vivo, po"}}}
{"smiles": "CCOC(=O)N1CCN(/C(=N\\C2CCCCC2)NC2CCCCC2)CC1", "values": [{"measurement": "Excretion Na+", "setting": "Canis familiaris [1]", "value": 8.3, "unit": "m equiv"}, {"measurement": "Excretion K+", "setting": "Rattus norvegicus [2]", "value": 0.29, "unit": "m equiv"}, {"measurement": "Excretion Cl-", "setting": "Canis familiaris [3]", "value": 5.4, "unit": "m equiv"}, {"measurement": "Excretion Cl-", "setting": "Rattus norvegicus [4]", "value": 0.98, "unit": "m equiv"}, {"measurement": "Excretion Cl-", "setting": "Rattus norvegicus [5]", "value": 1.7, "unit": "m equiv"}, {"measurement": "Excretion Na+", "setting": "Rattus norvegicus [6]", "value": 1.35, "unit": "m equiv"}, {"measurement": "Ratio", "setting": "Rattus norvegicus [7]", "value": 4}, {"measurement": "Excretion Cl-", "setting": "Rattus norvegicus [8]", "value": 1.38, "unit": "m equiv"}, {"measurement": "Excretion Na+", "setting": "Rattus norvegicus [9]", "value": 0.87, "unit": "m equiv"}, {"measurement": "V", "setting": "Rattus norvegicus [10]", "value": 10.8, "unit": "mL"}, {"measurement": "Excretion K+", "setting": "Rattus norvegicus [11]", "value": 0.33, "unit": "m equiv"}, {"measurement": "Excretion K+", "setting": "Rattus norvegicus [12]", "value": 0.42, "unit": "m equiv"}, {"measurement": "V", "setting": "Rattus norvegicus [13]", "value": 8.3, "unit": "mL"}, {"measurement": "V", "setting": "Canis familiaris [14]", "value": 51, "unit": "mL"}, {"measurement": "Ratio", "setting": "Rattus norvegicus [15]", "value": 4.1}, {"measurement": "Ratio", "setting": "Rattus norvegicus [16]", "value": 4.8}, {"measurement": "Excretion K+", "setting": "Canis familiaris [17]", "value": 2, "unit": "m equiv"}, {"measurement": "Ratio", "setting": "Rattus norvegicus [18]", "value": 3}, {"measurement": "Excretion Na+", "setting": "Rattus norvegicus [19]", "value": 1.67, "unit": "m equiv"}, {"measurement": "V", "setting": "Rattus norvegicus [20]", "value": 5.3, "unit": "mL"}]}
{"smiles": "CC(C)CC/N=C(/NC1CCCCC1)N1CCOCC1", "values": [{"measurement": "Ratio", "setting": "Rattus norvegicus [21]", "value": "5.2 [Na+]/[K+]"}, {"measurement": "Ratio", "setting": "Rattus norvegicus [22]", "value": "3.9 [Na+]/[K+]"}, {"measurement": "Excretion K+", "setting": "Rattus norvegicus [23]", "value": 0.31, "unit": "m equiv"}, {"measurement": "Excretion K+", "setting": "Rattus norvegicus [24]", "value": 0.21, "unit": "m equiv"}, {"measurement": "V", "setting": "Rattus norvegicus [25]", "value": 8.4, "unit": "mL"}, {"measurement": "Excretion Cl-", "setting": "Rattus norvegicus [26]", "value": 0.96, "unit": "m equiv"}, {"measurement": "Excretion Cl-", "setting": "Rattus norvegicus [27]", "value": 1.01, "unit": "m equiv"}, {"measurement": "Excretion Na+", "setting": "Rattus norvegicus [28]", "value": 0.85, "unit": "m equiv"}, {"measurement": "V", "setting": "Rattus norvegicus [29]", "value": 5.6, "unit": "mL"}, {"measurement": "Excretion Cl-", "setting": "Rattus norvegicus [30]", "value": 1.31, "unit": "m equiv"}, {"measurement": "V", "setting": "Rattus norvegicus [31]", "value": 6.6, "unit": "mL"}, {"measurement": "Excretion K+", "setting": "Rattus norvegicus [32]", "value": 0.33, "unit": "m equiv"}, {"measurement": "Ratio", "setting": "Rattus norvegicus [33]", "value": "2.7 [Na+]/[K+]"}, {"measurement": "Excretion Na+", "setting": "Rattus norvegicus [34]", "value": 1.28, "unit": "m equiv"}, {"measurement": "Excretion Na+", "setting": "Rattus norvegicus [35]", "value": 1.12, "unit": "m equiv"}]}
